Source: patent US11464767B2, “Prodrugs of phenolic TRPV1 agonists in combination with local anesthetics and vasoconstrictors for improved local anesthesia” (Concentric Analgesics, Inc., priority 2016, dated 2022)
One block for each molecule: values may come before it.

Columns and labels:
[1] = system: Brennan Model of Post-Incisional Pain in rat; assay: Brennan Model of Post-Incisional Pain in rat, guarding scores (Example 4); assay type: in vivo, male Sprague Dawley rats
Procedure: This Example compares the pharmacodynamics of capsaicin from either capsaicin or from Compound 1 (with or without co-administered bupivacaine or ropivacaine) administered via intraplantar infiltration to rats.
Intraplantar infiltration dosing: Five groups of eight male Sprague Dawley rats (vendor was Charles River Laboratories) each were to receive a single subcutaneous dose of one of the following test articles: • Group 1. Compound 1, 162 μg in 0.25% bupivacaine solution (175 μL) • Group 2. Compound 1, 162 μg in 0.25% ropivacaine solution (175 μL) • Group 3. Compound 1, 162 μg in 0.125% ropivacaine solution (175 μL) • Group 4. 0.25% Ropivacaine solution (175 μL) • Group 5. Vehicle control (0.9% Saline; 175 μL)
The injection volume was 175 μL per rat. Vehicle and test articles will be administered by wound intraplantar infiltration (150 μL) immediately prior to incision, and injection into flexor muscle prior to closure (25 μL).
Surgery: Animals were anesthetized with 1.8 to 4% isofluorane (delivered via a nose cone). Study drug ([…]) was infiltrated (by intraplantar injection) immediately prior to incision. A 1 cm long incision of skin, fascia and muscle will be made in the plantar aspect (heel, midfoot or distal pad area) of the right hind paw starting 0.5 cm from the proximal edge of the heel and extending towards the toes. The flexor muscle was elevated and incised longitudinally via blunt dissection with the muscle origin and insertion remaining intact. After hemostasis with gentle pressure, study drug (25 μL) was injected into the flexor muscle prior to closure, and the incision was closed with one or two sutures (5-0 silk/nylon ophthalmic suture on a taper TF needle or equivalent). […]
Guarding Behaviors: The rats were placed in Plexiglas® squares on a stainless steel wire mesh floor thirty minutes before guarding scores are to be measured for acclimation. Guarding scores were measured over 1 hour time periods for the incised paw. The animals were observed closely during a 60 second period every 5 minutes for 1 hour and scored as follows. […]

in vivo = assay: in vivo; set-up: species or system male Sprague-Dawley rats; conditions: rat, sc; for Tmax: Tmax of capsaicin
Excerpt: This Example compares the pharmacokinetics of capsaicin from either capsaicin or from Compound 1 (with or without co-administered bupivacaine or bupivacaine with epinephrine) administered subcutaneously (SC) to rats. Additionally, this example compares the pharmacokinetics of cyclic urea metabolite (Compound 2) from Compound 1 (with or without co-administered bupivacaine or bupivacaine with epinephrine).
SC dosing: Four groups of six male Sprague-Dawley rats (vendor was Charles River Laboratories) each were to receive a single subcutaneous dose (4 mL/kg) of one of the following test articles:
Group 1) 1.00 mg/kg capsaicin in 25% PEG300/sterile water for injection (♦);
Group 2) 1.62 mg/kg Compound 1.HCl in sterile water for injection (□);
Group 3) 1.62 mg/kg Compound 1.HCl in 0.25% bupivacaine hydrochloride for injection (Δ);
Group 4) 1.62 mg/kg Compound 1.HCl in 0.25% bupivacaine hydrochloride plus epinephrine, (1:200,000 for injection) (*).
The dose of capsaicin and Compound 1 were selected to provide approximately equimolar amounts.
The injection volume was 4 mL/kg. (Note: The actual dose of capsaicin for Group 1 was 0.74 mg/kg, or 74% of the intended dose of 1 mg/kg. Dose data represents dose correction of Group 1 to equimolar dosages with Compound 1 from groups 2, 3, 4). The actual doses of Compound 1 HCl and bupivacaine for Groups 2, 3, and 4 were within 10% of the intended doses.
Blood samples (0.3 mL) were collected from the jugular vein into tubes containing K2EDTA as anticoagulant and 0.3 ml of 2% formic acid (resulting in a final concentration of 1% formic acid) as a quenching agent to stop the cyclization of Compound 1, which releases capsaicin and cyclic urea Compound 2. The samples were collected from each rat at 2, 10, and 30 minutes, and 1, 2, 4, 8, and 24 hours post-dose.
Each blood sample was mixed by inversion and placed on dry ice. They were not processed for plasma. The blood samples were kept frozen at −70° C. until further processing and analysis was performed. All blood samples were collected as scheduled.
The concentrations of the two main analytes in rat blood mixed 1:1 (v/v) with 2% formic acid were determined simultaneously using a qualified LC-MS/MS assay. The results for both analytes were reported in ng/mL. The calibration range was 1 to 1,000 ng/mL for Compound 1 and capsaicin in the mixed matrix. The calibration range was 5 to 1,000 ng/mL for Compound 2.
Table 1, FIG. 1, and FIG. 2 provide dose-corrected capsaicin exposure results for rats administered as described above.
Table 2, FIG. 3, and FIG. 4 provide Compound 2 exposure results for rats administered as described above.

[2] = Hydrophilicity/water solubility compared with capsaicin; assay type: physicochemical; conditions: than capsaicin
[3] = male, Sprague-Dawley, 1.62 mg/kg

Structure (SMILES): CCCN1CCCC[C@H]1C(=O)Nc1c(C)cccc1C [0.25% Ropivacaine, Ropivacaine]
- Guarding Score (Mean ± SEM) Day 1 ([1]; Day 1, beginning four hours post surgery, 175 μL intraplantar infiltration, Compound 1 dose 162 μg where present, incised paw, total scores 0-24): 13.5 ± 1.17
- mean guarding scores on Day 1 compared to the 0.9% saline group ([1]; Day 1, 175 μL intraplantar infiltration, Compound 1 dose 162 μg where present, p<0.05): no significant changes
- Guarding Score (Mean ± SEM) Predose ([1]; Predose baseline, day prior to surgery and dosing, incised paw, total scores 0-24): 1.1 ± 0.30

- Tmax (in vivo; male, Sprague-Dawley, 1 mg/kg, Mean ± SD): 30 min
- Tmax (in vivo; male, Sprague-Dawley, 1 mg/kg, Median): 30 min
- Tmax of capsaicin, Mean ± SD (in vivo; [3]): 50.0 ± 15.5 min
- Tmax of capsaicin, Median (in vivo; [3]): 60 min
- Tmax (in vivo; male, Sprague-Dawley, 1.62 mg/kg, Mean ± SD): 26.7 min
- Tmax (in vivo; male, Sprague-Dawley, 1.62 mg/kg, Median): 30 min
- AUC0-24 of capsaicin, Mean ± SD (in vivo; 1 mg/kg): 5,799 ± 1,759 (ng · min/mL)/(mg/kg)
- AUC0-24 of capsaicin, Median (in vivo; 1 mg/kg): 5,193 (ng · min/mL)/(mg/kg)
- Cmax of capsaicin, Mean ± SD (in vivo; 1 mg/kg): 110 ± 41 (ng/mL)/(mg/kg)
- Cmax of capsaicin, Median (in vivo; 1 mg/kg): 105 (ng/mL)/(mg/kg)
Structure (SMILES): COc1cc(CNC(=O)CCCCC=CC(C)C)ccc1O [Capsaicin, 8-methyl-N-vanillyl-6-nonenamide]

Structure (SMILES): CNCC1CCCCN1C(=O)Oc1ccc(CNC(=O)CCCC/C=C/C(C)C)cc1OC.Cl (centres unmarked) [Compound 1, (E)-2-methoxy-4-((8-methylnon-6-enamido)methyl)phenyl 2-((methylamino)methyl)piperidine-1-carboxylate hydrochloride]
- hydrophilicity/water solubility [2]: significantly higher

- AUC0-24 of Compound 2, Mean ± SD (in vivo; [3]): 24,180 ± 7,095 ng · min/mL
- AUC0-24 of Compound 2, Median (in vivo; [3]): 25,930 ng · min/mL
- Cmax of Compound 2, Mean ± SD (in vivo; [3]): 175 ± 48 ng/mL
- Cmax of Compound 2, Median (in vivo; [3]): 196 ng/mL
- Tmax of Compound 2, Mean ± SD (in vivo; [3]): 36.7 ± 19.7 min
- AUC(0-t) (in vivo; male, Sprague-Dawley, 1.62 mg/kg, AUC0-24 of Compound 2, Mean ± SD): 445 ng·h/mL
- AUC(0-t) (in vivo; male, Sprague-Dawley, 1.62 mg/kg, AUC0-24 of Compound 2, Median): 450 ng·h/mL
- Cmax (in vivo; male, Sprague-Dawley, 1.62 mg/kg, Cmax of Compound 2, Mean ± SD): 226 ± 37 ng/mL
- Cmax (in vivo; male, Sprague-Dawley, 1.62 mg/kg, Cmax of Compound 2, Median): 226 ng/mL
Structure (SMILES): CN1CC2CCCCN2C1=O (centres unmarked) [Compound 2, 2-methylhexahydroimidazo[1,5-a]pyridin-3(2H)-one]
